Patent US10123541B2, “Biocidal mixture, use of biocidal mixture and compositions comprising a biocidal mixture” (ISP Investments LLC, priority 2014, dated 2018)

What was measured:
Test in all cases: Minimum Inhibitory Concentration (MIC) growth test
Type in all cases: cell-based
[1] = tested on: Staphylococcus aureus, ATCC 6538; parameters: key to growth of organisms: − = no growth; + = low growth; ++ = moderate growth; +++ = high growth
Text: (§1) This example intends to analyze the microbial activity of the mixture of invention compared to the individual activity of the mixture components using the methodology that determines the minimal concentration of the substance or mixture that inhibits microorganism growth.
(§2) The tested micro-organisms were: • Staphylococcus aureus, ATCC 6538 • Escherichia coli, ATCC 8739 • Pseudomonas aeruginosa, ATCC 9027 • Burkholderia cepacia, ATCC 25416 • Candida albicans, ATCC 10231 • Aspergillus brasiliensis, ATCC 16404
(§3) The samples of the table above were initially prepared with an initial concentration of 3% based on their solubility in water, and then diluted to achieve the following concentrations: 1.5%; 0.75%; 0.375%; 0.1875%; 0.09375%.
(§4) The dilutions were obtained as follows: (a) to a first test tube containing 5 mL of tripticase soy broth (TSB), 5 mL of 3% concentration solution were added and the mixture was vortexed. 5 mL of the contents of this tube were removed and added to a second tube containing 5 mL of TSB and the mixture was vortexed. This procedure was repeated until obtaining the various concentrations.
(§5) The tested organisms were prepared as typical organism inoculants, under the form of a saline suspension. The concentration of bacterial inoculants was approximately 1×10^6 cfu/mL (“colony-forming unit per milliliter”). The concentration of fungal inoculants was approximately 1×10^5 spores/mL. In the sequence, each sample solution was inoculated with 0.1 mL of organism inoculum and vortexed. The tubes containing bacteria were incubated for 24 hours at 35° C. and the tubes containing fungi were incubated for 48 hours at 25° C.
(§6) An aliquot of 0.1 mL from these tubes was transferred to a tube having 9 mL of Letheen broth containing neutralizing agents. These Letheen tubes were again incubated for 48 hours with Letheen under incubation temperature for bacteria or fungi. Then, a swab previously wet with TSB was put in contact with sample solutions with concentrations 1.5%; 0.75%; 0.375%; 0.1875% and 0.09375%, and then they were swiped over the surface of culture plates (for bacteria: Letheen agar, AOAC—Association of Official Analytical Chemists; for fungi: Mycophil® agar of low pH with Tween® 20 polysorbate surfactant).

[2] = tested on: Burkholderia cepacia, ATCC 25416; parameters: key to growth of organisms: − = no growth; + = low growth; ++ = moderate growth; +++ = high growth
Text: as §1, §2, §3, §4, §5, §6

[3] = tested on: Escherichia coli, ATCC 8739; parameters: key to growth of organisms: − = no growth; + = low growth; ++ = moderate growth; +++ = high growth
Text: as §1, §2, §3, §4, §5, §6

[4] = tested on: Pseudomonas aeruginosa, ATCC 9027; parameters: key: − = no growth; + = low growth; ++ = moderate growth; +++ = high growth
Text: as §1, §2, §3, §4, §5, §6

[5] = tested on: Candida albicans, ATCC 10231; parameters: key: − = no growth; + = low growth; ++ = moderate growth; +++ = high growth
Text: as §1, §2, §3, §4, §5, §6

[6] = tested on: Aspergillus brasiliensis, ATCC 16404; parameters: key: − = no growth; + = low growth; ++ = moderate growth; +++ = high growth
Text: as §1, §2, §3, §4, §5, §6

OCCCc1ccccc1 [Sample 1, Phenylpropanol]
inhibition of growth (in words) ([1]; concentration of 1.5%): not able to inhibit the growth
growth of organisms ([1]; sample concentration 0.09375%): +
growth of organisms ([1]; sample concentration 0.1875%): +
growth of organisms ([1]; sample concentration 0.375%): +
growth of organisms ([1]; sample concentration 0.75%): +
growth of organisms ([1]; sample concentration 1.5%): +
inhibition of growth (in words) ([2]; concentration of 1.5%): not able to inhibit the growth
growth of organisms ([2]; sample concentration 0.09375%): +
growth of organisms ([2]; sample concentration 0.1875%): +
growth of organisms ([2]; sample concentration 0.375%): +
growth of organisms ([2]; sample concentration 0.75%): +
growth of organisms ([2]; sample concentration 1.5%): +
inhibition of growth (in words) ([3]; concentration of 1.5%): not able to inhibit the growth
growth of organisms ([3]; sample concentration 0.09375%): +
growth of organisms ([3]; sample concentration 0.1875%): +
growth of organisms ([3]; sample concentration 0.375%): +
growth of organisms ([3]; sample concentration 0.75%): +
growth of organisms ([3]; sample concentration 1.5%): +
growth of organisms ([4]; sample concentration 0.09375%): +
growth of organisms ([4]; sample concentration 0.1875%): +
growth of organisms ([4]; sample concentration 0.375%): +
growth of organisms ([4]; sample concentration 0.75%): +
growth of organisms ([4]; sample concentration 1.5%): −
growth of organisms ([5]; sample concentration 0.09375%): +
growth of organisms ([5]; sample concentration 0.1875%): +
growth of organisms ([5]; sample concentration 0.375%): +
growth of organisms ([5]; sample concentration 0.75%): −
growth of organisms ([5]; sample concentration 1.5%): −
growth of organisms ([6]; sample concentration 0.09375%): +
growth of organisms ([6]; sample concentration 0.1875%): +
growth of organisms ([6]; sample concentration 0.375%): +
growth of organisms ([6]; sample concentration 0.75%): −
growth of organisms ([6]; sample concentration 1.5%): −
